Source: patent US6441195B1, “Substituted sulphonylamino(thio) carbonyl compounds” (Bayer Aktiengesellschaft, priority 1995, dated 2002)

Tests used:
Type in all cases: in vivo
Solanum = test: Pre-emergence test/Greenhouse, Solanum; details: after three weeks
How it was run: (§1)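 Percent damage relative to untreated control plants, scored three weeks after treatment, is the read-out (0% meaning no effect). Treatment consisted of watering the soil with an emulsified aqueous preparation roughly 24 h after seeds were sown, at constant water volume per area.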

Amaranthus = test: Post-emergence test/greenhouse, Amaranthus; details: greenhouse, after three weeks
Method: (§2) Solvent: 5 parts by weight of acetone
(§3) Emulsifier: 1 part by weight of alkylaryl polyglycol ether
(§4) To produce a suitable preparation of active compound, 1 part by weight of active compound is mixed with the stated amount of solvent, the stated amount of emulsifier is added and the concentrate is diluted with water to the desired concentration.
(§5) Test plants which have a height of 5-15 cm are sprayed with the preparation of the active compound in such a way as to apply the particular amounts of active compound desired per unit area. The concentration of the spray liquor is chosen so that the particular amounts of active compound desired are applied in 2000 l of water/ha.
(§6) After three weeks, the degree of damage to the plants is rated in % damage in comparison to the development of the untreated control.
(§7) 0%=no action (like untreated control)

Ambrosia = test: Pre-emergence test/Greenhouse, Ambrosia; details: after three weeks
How it was run: as §1

Echinochloa = test: Post-emergence test/greenhouse, Echinochloa; details: greenhouse, after three weeks
Method: as §2, §3, §4, §5, §6, §7

weeds [1] = test: Post-emergence test (greenhouse), activity against weeds; details: in words
Method: as §2, §3, §4, §5, §6, §7

Sorghum [2] = test: Post-emergence test/greenhouse, Sorghum; details: greenhouse, after three weeks
Method: as §2, §3, §4, §5, §6, §7

Poa = test: Pre-emergence test/Greenhouse, Poa; details: after three weeks
How it was run: as §1

Maize = test: Pre-emergence test/Greenhouse, Maize; details: in vivo
How it was run: as §1

Sorghum [3] = test: Pre-emergence test/Greenhouse, Sorghum; details: after three weeks
How it was run: as §1

Digitaria = test: Post-emergence test/greenhouse, Digitaria; details: greenhouse, after three weeks
Method: as §2, §3, §4, §5, §6, §7

Matricaria [4] = test: Post-emergence test/greenhouse, Matricaria; details: greenhouse, after three weeks
Method: as §2, §3, §4, §5, §6, §7

weeds [5] = test: Pre-emergence test (greenhouse), activity against weeds; details: in words
How it was run: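 Compound formulated in acetone with alkylaryl polyglycol ether emulsifier, diluted in water, and watered onto soil about 24 h after sowing, dosed by application rate per unit area. Damage rated after three weeks as % versus untreated control (0% = no action).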

Matricaria [6] = test: Pre-emergence test/Greenhouse, Matricaria; details: after three weeks
How it was run: as §1

Stellaria = test: Post-emergence test/greenhouse, Stellaria; details: greenhouse, after three weeks
Method: as §2, §3, §4, §5, §6, §7

Lolium [7] = test: Post-emergence test/greenhouse, Lolium; details: greenhouse, after three weeks
Method: as §2, §3, §4, §5, §6, §7

Gallium = test: Post-emergence test/greenhouse, Gallium; details: greenhouse, after three weeks
Method: as §2, §3, §4, §5, §6, §7

Soya beans = test: Pre-emergence test/Greenhouse, Soya beans; details: in vivo
How it was run: as §1

Lolium [8] = test: Pre-emergence test/Greenhouse, Lolium; details: after three weeks
How it was run: as §1

SMILES	degree of damage, Amaranthus (Amaranthus; 60 g of ai./ha)	degree of damage, Echinochloa (Echinochloa; 60 g of ai./ha)	activity against weeds (weeds [1])	degree of damage, Sorghum (Sorghum [2]; 60 g of ai./ha)	degree of damage to the plants (% damage vs untreated control), Maize (Maize)	degree of damage, Digitaria (Digitaria; 60 g of ai./ha)	degree of damage, Matricaria (Matricaria [4]; 60 g of ai./ha)	activity against weeds (weeds [5])	degree of damage, Stellaria (Stellaria; 60 g of ai./ha)	degree of damage, Lolium (Lolium [7]; 60 g of ai./ha)	degree of damage, Gallium (Gallium; 60 g of ai./ha)	degree of damage to the plants (% damage vs untreated control), Soya beans (Soya beans)	further results
CCCOc1nn(C(=O)NS(=O)(=O)c2c(C)cccc2C(=O)OC)c(=O)n1C1CC1 [Example 165]	95%	80%	very strong activity against weeds	90%	0%	50%	95%	very strong activity against weeds	95%	50%	95%	10%	degree of damage to the plants (% damage vs untreated control), Solanum (Solanum; 8 g of ai./ha): 80%; degree of damage to the plants (% damage vs untreated control), Ambrosia (Ambrosia; 8 g of ai./ha): 80%; degree of damage to the plants (% damage vs untreated control), Poa (Poa; 8 g of ai./ha): 90%; degree of damage to the plants (% damage vs untreated control), Sorghum (Sorghum [3]; 8 g of ai./ha): 70%; degree of damage to the plants (% damage vs untreated control), Matricaria (Matricaria [6]; 8 g of ai./ha): 90%
CCSc1nn(C(=O)NS(=O)(=O)c2c(C)cccc2C(=O)OC)c(=O)n1C1CC1 [Example 159]	95%	80%	very strong activity against weeds	70%	10%	60%	100%	very strong activity against weeds	100%	60%	95%		degree of damage to the plants (% damage vs untreated control), Solanum (Solanum; 30 g of ai./ha): 95%; degree of damage to the plants (% damage vs untreated control), Ambrosia (Ambrosia; 30 g of ai./ha): 95%; degree of damage to the plants (% damage vs untreated control), Poa (Poa; 30 g of ai./ha): 95%; degree of damage to the plants (% damage vs untreated control), Lolium (Lolium [8]; 30 g of ai./ha): 90%; degree of damage to the plants (% damage vs untreated control), Sorghum (Sorghum [3]; 30 g of ai./ha): 60%; degree of damage to the plants (% damage vs untreated control), Matricaria (Matricaria [6]; 30 g of ai./ha): 95%
COC(=O)c1cccc(C)c1S(=O)(=O)NC(=O)n1nc(OC(C)C)n(C2CC2)c1=O [Example 166]	95%	70%	very strong activity against weeds	90%	40%	70%	100%	very strong activity against weeds	95%	50%	95%		degree of damage to the plants (% damage vs untreated control), Solanum (Solanum; 15 g of ai./ha): 90%; degree of damage to the plants (% damage vs untreated control), Ambrosia (Ambrosia; 15 g of ai./ha): 80%; degree of damage to the plants (% damage vs untreated control), Poa (Poa; 15 g of ai./ha): 90%; degree of damage to the plants (% damage vs untreated control), Lolium (Lolium [8]; 15 g of ai./ha): 90%; degree of damage to the plants (% damage vs untreated control), Sorghum (Sorghum [3]; 15 g of ai./ha): 70%; degree of damage to the plants (% damage vs untreated control), Matricaria (Matricaria [6]; 15 g of ai./ha): 95%
COC(=O)c1cccc(C)c1S(=O)(=O)NC(=O)n1nc(OC)n(C)c1=O [Example 162]		80%	very strong activity against weeds	80%		70%	60%	very strong activity against weeds	90%	90%		0%	degree of damage to the plants (% damage vs untreated control), Solanum (Solanum; 60 g of ai./ha): 95%; degree of damage to the plants (% damage vs untreated control), Ambrosia (Ambrosia; 60 g of ai./ha): 80%; degree of damage to the plants (% damage vs untreated control), Poa (Poa; 60 g of ai./ha): 95%; degree of damage to the plants (% damage vs untreated control), Lolium (Lolium [8]; 60 g of ai./ha): 95%; degree of damage to the plants (% damage vs untreated control), Sorghum (Sorghum [3]; 60 g of ai./ha): 90%; degree of damage to the plants (% damage vs untreated control), Matricaria (Matricaria [6]; 60 g of ai./ha): 95%
CCCOc1nn(C(=O)[N-]S(=O)(=O)c2c(C)cccc2C(=O)OC)c(=O)n1C.[Na+] [Example 144]			very strong activity against weeds					very strong activity against weeds					degree of damage to the plants (% damage vs untreated control), Solanum (Solanum; 125 g of ai./ha): 95%; degree of damage, Amaranthus (Amaranthus; 250 g of ai./ha): 100%; degree of damage to the plants (% damage vs untreated control), Ambrosia (Ambrosia; 125 g of ai./ha): 80%; degree of damage, Echinochloa (Echinochloa; 250 g of ai./ha): 95%; degree of damage, Sorghum (Sorghum [2]; 250 g of ai./ha): 95%; degree of damage to the plants (% damage vs untreated control), Poa (Poa; 125 g of ai./ha): 90%; degree of damage to the plants (% damage vs untreated control), Lolium (Lolium [8]; 125 g of ai./ha): 90%; degree of damage to the plants (% damage vs untreated control), Sorghum (Sorghum [3]; 125 g of ai./ha): 95%; degree of damage, Digitaria (Digitaria; 250 g of ai./ha): 95%; degree of damage, Matricaria (Matricaria [4]; 250 g of ai./ha): 70%; degree of damage to the plants (% damage vs untreated control), Matricaria (Matricaria [6]; 125 g of ai./ha): 95%; degree of damage, Stellaria (Stellaria; 250 g of ai./ha): 95%; degree of damage, Lolium (Lolium [7]; 250 g of ai./ha): 70%; degree of damage, Gallium (Gallium; 250 g of ai./ha): 95%
CCCOc1nn(C(=O)NS(=O)(=O)c2c(C)cccc2C(=O)OC)c(=O)n1C [Example 140]			very strong activity against weeds					very strong activity against weeds				10%	degree of damage to the plants (% damage vs untreated control), Solanum (Solanum; 30 g of ai./ha): 95%; degree of damage, Amaranthus (Amaranthus; 250 g of ai./ha): 100%; degree of damage to the plants (% damage vs untreated control), Ambrosia (Ambrosia; 30 g of ai./ha): 80%; degree of damage, Echinochloa (Echinochloa; 250 g of ai./ha): 90%; degree of damage, Sorghum (Sorghum [2]; 250 g of ai./ha): 95%; degree of damage to the plants (% damage vs untreated control), Poa (Poa; 30 g of ai./ha): 95%; degree of damage to the plants (% damage vs untreated control), Sorghum (Sorghum [3]; 30 g of ai./ha): 95%; degree of damage, Digitaria (Digitaria; 250 g of ai./ha): 95%; degree of damage, Matricaria (Matricaria [4]; 250 g of ai./ha): 90%; degree of damage to the plants (% damage vs untreated control), Matricaria (Matricaria [6]; 30 g of ai./ha): 80%; degree of damage, Stellaria (Stellaria; 250 g of ai./ha): 70%; degree of damage, Gallium (Gallium; 250 g of ai./ha): 95%
CCOC(=O)c1scc(C)c1S(=O)(=O)NC(=O)n1nc(OCC)n(C2CC2)c1=O [Example 63]	100%	90%	very strong activity against weeds	80%	10%	50%	95%	very strong activity against weeds	100%	70%	90%		degree of damage to the plants (% damage vs untreated control), Solanum (Solanum; 60 g of ai./ha): 100%; degree of damage to the plants (% damage vs untreated control), Ambrosia (Ambrosia; 60 g of ai./ha): 100%; degree of damage to the plants (% damage vs untreated control), Poa (Poa; 60 g of ai./ha): 95%; degree of damage to the plants (% damage vs untreated control), Lolium (Lolium [8]; 60 g of ai./ha): 100%; degree of damage to the plants (% damage vs untreated control), Sorghum (Sorghum [3]; 60 g of ai./ha): 80%; degree of damage to the plants (% damage vs untreated control), Matricaria (Matricaria [6]; 60 g of ai./ha): 100%
